In the NIST ThermoML archive (doi:10.1016/j.jct.2016.01.019):

Test: refractive index (other wavelength) (dimensionless); xn = mol fraction of the nth substance listed
Conditions: 94.64 kPa, Liquid, Standard Abbe refractometry

OCCCO [propan-1,3-diol] + CC(O)CO
refractive index
Conditions | x2 = 0 | x2 = 0.0985 | x2 = 0.2023 | x2 = 0.3015 | x2 = 0.3961 | x2 = 0.5009 | x2 = 0.5961 | x2 = 0.6965 | x2 = 0.7974 | x2 = 0.8985
293.15 K, Wavelength=404.7 nm | 1.45177 | 1.45152 | 1.45117 | 1.45077 | 1.45025 | 1.44969 | 1.44909 | 1.44823 | 1.44738 | 1.44618
293.15 K, Wavelength=435.8 nm | 1.44842 | 1.44817 | 1.44786 | 1.44741 | 1.44688 | 1.44623 | 1.4456 | 1.44492 | 1.44401 | 1.44315
293.15 K, Wavelength=486.1 nm | 1.4444 | 1.44417 | 1.44386 | 1.44341 | 1.4429 | 1.44217 | 1.44132 | 1.44021 | 1.43935 | 1.43821
293.15 K, Wavelength=546.1 nm | 1.44112 | 1.44088 | 1.44041 | 1.44013 | 1.43961 | 1.43884 | 1.43806 | 1.43695 | 1.4362 | 1.43491
293.15 K, Wavelength=587.6 nm | 1.43939 | 1.43913 | 1.43875 | 1.4384 | 1.43788 | 1.43721 | 1.43623 | 1.43524 | 1.43439 | 1.43321
293.15 K, Wavelength=632.8 nm | 1.43781 | 1.43756 | 1.43729 | 1.43683 | 1.43632 | 1.43545 | 1.43467 | 1.43369 | 1.43253 | 1.43168
293.15 K, Wavelength=644 nm | 1.43746 | 1.43722 | 1.43699 | 1.43649 | 1.43597 | 1.43501 | 1.43435 | 1.43334 | 1.43219 | 1.43133
293.15 K, Wavelength=706.5 nm | 1.43577 | 1.43555 | 1.43506 | 1.43479 | 1.43428 | 1.43373 | 1.43315 | 1.43207 | 1.4311 | 1.42985
298.15 K, Wavelength=404.7 nm | 1.45037 | 1.44979 | 1.44932 | 1.4489 | 1.44849 | 1.44768 | 1.44694 | 1.44595 | 1.44515 | 1.44396
298.15 K, Wavelength=435.8 nm | 1.447 | 1.44654 | 1.44606 | 1.44553 | 1.44512 | 1.44432 | 1.4436 | 1.44261 | 1.44156 | 1.44059
298.15 K, Wavelength=486.1 nm | 1.44301 | 1.44246 | 1.44198 | 1.44156 | 1.44107 | 1.44037 | 1.43963 | 1.43868 | 1.43776 | 1.43667
298.15 K, Wavelength=546.1 nm | 1.43975 | 1.43919 | 1.43879 | 1.4383 | 1.43762 | 1.43712 | 1.43618 | 1.43541 | 1.43467 | 1.43341
298.15 K, Wavelength=587.6 nm | 1.43802 | 1.43746 | 1.437 | 1.43658 | 1.43619 | 1.43539 | 1.43469 | 1.43371 | 1.43285 | 1.43168
298.15 K, Wavelength=632.8 nm | 1.43645 | 1.4359 | 1.43532 | 1.43502 | 1.43462 | 1.43383 | 1.43322 | 1.43217 | 1.43136 | 1.43004
298.15 K, Wavelength=644 nm | 1.43611 | 1.43555 | 1.43498 | 1.43455 | 1.43428 | 1.43349 | 1.433 | 1.43183 | 1.43102 | 1.4298
298.15 K, Wavelength=706.5 nm | 1.43441 | 1.43388 | 1.43335 | 1.43299 | 1.4326 | 1.43191 | 1.43129 | 1.43036 | 1.42924 | 1.42812
303.15 K, Wavelength=404.7 nm | 1.44902 | 1.44844 | 1.44795 | 1.44749 | 1.44689 | 1.44619 | 1.44547 | 1.44435 | 1.44351 | 1.44237
303.15 K, Wavelength=435.8 nm | 1.44566 | 1.44521 | 1.44451 | 1.44394 | 1.44353 | 1.44285 | 1.44213 | 1.44101 | 1.44017 | 1.43903
303.15 K, Wavelength=486.1 nm | 1.44168 | 1.44133 | 1.44074 | 1.44019 | 1.43962 | 1.43892 | 1.43821 | 1.43713 | 1.43628 | 1.43516
303.15 K, Wavelength=546.1 nm | 1.43844 | 1.43797 | 1.43739 | 1.43695 | 1.43637 | 1.43567 | 1.43498 | 1.43387 | 1.43316 | 1.43194
303.15 K, Wavelength=587.6 nm | 1.43671 | 1.43615 | 1.43575 | 1.43524 | 1.43466 | 1.43396 | 1.43314 | 1.43216 | 1.43125 | 1.43024
303.15 K, Wavelength=632.8 nm | 1.43514 | 1.4344 | 1.43386 | 1.43339 | 1.43311 | 1.43232 | 1.43161 | 1.43065 | 1.42981 | 1.42869
303.15 K, Wavelength=644 nm | 1.4348 | 1.43405 | 1.43371 | 1.43304 | 1.43277 | 1.43207 | 1.43136 | 1.43031 | 1.42947 | 1.42834
303.15 K, Wavelength=706.5 nm | 1.43312 | 1.43234 | 1.43183 | 1.43136 | 1.43109 | 1.4304 | 1.42989 | 1.42884 | 1.428 | 1.42669
308.15 K, Wavelength=404.7 nm | 1.44755 | 1.44681 | 1.44642 | 1.44583 | 1.44528 | 1.44466 | 1.44403 | 1.44294 | 1.44202 | 1.44072
308.15 K, Wavelength=435.8 nm | 1.44419 | 1.44355 | 1.44296 | 1.44258 | 1.44194 | 1.44132 | 1.4406 | 1.43962 | 1.43868 | 1.43738
308.15 K, Wavelength=486.1 nm | 1.44027 | 1.43972 | 1.43922 | 1.43857 | 1.43806 | 1.43743 | 1.43673 | 1.43585 | 1.43482 | 1.43353
308.15 K, Wavelength=546.1 nm | 1.43699 | 1.43636 | 1.43579 | 1.43522 | 1.4348 | 1.43417 | 1.43347 | 1.43254 | 1.43163 | 1.43033
308.15 K, Wavelength=587.6 nm | 1.43529 | 1.43471 | 1.434 | 1.43353 | 1.4331 | 1.43247 | 1.43187 | 1.43093 | 1.42993 | 1.42865
308.15 K, Wavelength=632.8 nm | 1.43375 | 1.43302 | 1.4324 | 1.432 | 1.43158 | 1.43095 | 1.43034 | 1.42938 | 1.42838 | 1.42712
308.15 K, Wavelength=644 nm | 1.4334 | 1.43286 | 1.4322 | 1.43185 | 1.43123 | 1.43061 | 1.43 | 1.42895 | 1.42803 | 1.42677
308.15 K, Wavelength=706.5 nm | 1.4317 | 1.43089 | 1.4305 | 1.42987 | 1.42955 | 1.42893 | 1.42834 | 1.42729 | 1.42637 | 1.42508
313.15 K, Wavelength=404.7 nm | 1.44615 | 1.44547 | 1.44484 | 1.44421 | 1.44353 | 1.4429 | 1.44213 | 1.4412 | 1.44027 | 1.4391
313.15 K, Wavelength=435.8 nm | 1.4428 | 1.44212 | 1.44145 | 1.44077 | 1.44021 | 1.43956 | 1.43886 | 1.43787 | 1.43694 | 1.43576
313.15 K, Wavelength=486.1 nm | 1.43888 | 1.43822 | 1.43758 | 1.43688 | 1.43634 | 1.43565 | 1.435 | 1.43401 | 1.43313 | 1.43193
313.15 K, Wavelength=546.1 nm | 1.43562 | 1.43502 | 1.4344 | 1.43385 | 1.43312 | 1.43257 | 1.43175 | 1.43082 | 1.42992 | 1.42873
313.15 K, Wavelength=587.6 nm | 1.43392 | 1.43331 | 1.43262 | 1.43194 | 1.43132 | 1.43077 | 1.43006 | 1.42912 | 1.42824 | 1.42705
313.15 K, Wavelength=632.8 nm | 1.43238 | 1.43157 | 1.43095 | 1.43031 | 1.42988 | 1.42924 | 1.42852 | 1.42758 | 1.42673 | 1.42553
313.15 K, Wavelength=644 nm | 1.43203 | 1.43122 | 1.43065 | 1.42997 | 1.42954 | 1.429 | 1.42818 | 1.42724 | 1.42638 | 1.42518
313.15 K, Wavelength=706.5 nm | 1.43035 | 1.42953 | 1.42898 | 1.4284 | 1.42788 | 1.42723 | 1.42653 | 1.42558 | 1.4247 | 1.42352
318.15 K, Wavelength=404.7 nm | 1.44474 | 1.44416 | 1.44346 | 1.44271 | 1.4421 | 1.44134 | 1.44059 | 1.43957 | 1.43859 | 1.43751
318.15 K, Wavelength=435.8 nm | 1.44141 | 1.44072 | 1.44015 | 1.43938 | 1.43872 | 1.438 | 1.43725 | 1.43624 | 1.43526 | 1.43417
318.15 K, Wavelength=486.1 nm | 1.43754 | 1.43671 | 1.43608 | 1.43535 | 1.43468 | 1.43396 | 1.43322 | 1.43243 | 1.43145 | 1.43035
318.15 K, Wavelength=546.1 nm | 1.43429 | 1.43372 | 1.43312 | 1.43243 | 1.43177 | 1.43107 | 1.43022 | 1.42925 | 1.42827 | 1.42718
318.15 K, Wavelength=587.6 nm | 1.43261 | 1.43191 | 1.43127 | 1.43053 | 1.42988 | 1.42918 | 1.42854 | 1.42758 | 1.42659 | 1.42551
318.15 K, Wavelength=632.8 nm | 1.43109 | 1.43037 | 1.42963 | 1.42894 | 1.42826 | 1.42752 | 1.42682 | 1.42606 | 1.42507 | 1.424
318.15 K, Wavelength=644 nm | 1.43075 | 1.43013 | 1.4294 | 1.42884 | 1.42811 | 1.42748 | 1.42668 | 1.42572 | 1.42473 | 1.42365
318.15 K, Wavelength=706.5 nm | 1.42908 | 1.42827 | 1.4276 | 1.42698 | 1.42645 | 1.42575 | 1.425 | 1.42406 | 1.42308 | 1.42199
